According to US7999011B2, “Method for cardioprotection and neuroprotection by intravenous administration of halogenated volatile anesthetics” (Baxter International Inc., priority 2002, dated 2011):

Legend:
[1] = blood/gas; cited from earlier work
[2] = Arterial blood gas analysis; format: in vivo, rabbit; details: for pH: arterial blood
Experimental: (§1) Male New Zealand white rabbits weighing between 2.5 and 3.0 kg were anesthetized with intravenous sodium pentobarbital (30 mg/kg). Additional doses of pentobarbital were titrated as required to assure that pedal and palpebral reflexes were absent throughout the experiment. A tracheotomy was performed through a ventral midline incision, and the trachea was cannulated. The rabbits were ventilated with positive pressure using an air-oxygen mixture (FiO2=0.33). […] Body temperature was maintained with a heating blanket. Heparin-filled catheters were inserted into the right carotid artery and the left jugular vein for measurement of arterial blood pressure and fluid or drug administration, respectively. Maintenance fluids consisted of 0.9% saline (15 ml/kg/h) that were continued for the duration of the experiment.
(§2) Baseline measurements of systemic hemodynamics, arterial blood gas tensions, and blood concentrations of anesthetic agent were performed 30 min after instrumentation was completed. Rabbits received 0.9% saline, drug lipid vehicle (10 ml/h), or intravenous volatile anesthetic (10 ml/h) for 30 min. Infusions were discontinued 30 min prior to coronary occlusion (memory period). Blood concentrations of anesthetic agents were performed at baseline, at the end of anesthetic infusion, and at the end of the memory period just before coronary occlusion). HVA concentrations in blood were determined by gas chromatographic (GC) analysis. All rabbits underwent a 30 min LAD occlusion followed by 3 h reperfusion.
(§3) Statistical analysis of data within and between groups was performed with analysis of variance (ANOVA) for repeated measures followed by Student-Newman-Keuls test. Changes between groups were considered statistically significant when the p value was less than 0.05. All data are expressed as mean±SEM.

[3] = Literature MAC values in rabbits and 1 MAC-equivalent blood concentration; format: in vivo; details: 37° C., rabbit; x=λn
Experimental: “Minimum alveolar concentration (MAC)”, as is known in the art, is the alveolar concentration of an anesthetic, administered by inhalation at a pressure of 1 atmosphere, that prevents movement in 50% of patients in response to a painful stimuli. The MAC is age-dependent; it may be affected by a patient's medical condition; and it may also be affected by other pharmaceutical agents that are administered to the patient. In the context of intravenous administration of HVAs, the term “MAC” or “MAC-equivalent” is intended to mean an intravenous dose which produces the same blood plasma concentration of an anesthetic agent as that attained by inhalational administration of a gaseous concentration of anesthetic which prevents such movement in 50% of patients.
Blood concentrations as measured by GC were converted to their MAC-equivalent values by calculations described below. Initially “n”, or the number of moles of HVA in 1 L of alveolar gas during exposure to 1.0 MAC of the HVA was calculated.
The number of moles of the HVA in 1 L at 37° C. at 1 MAC in rabbits was then used to determine the concentration of the HVA present in blood by using known blood/gas partition values (also known as λ). […] The value for “x” (or the equivalent blood concentration of the HVA at 1 MAC at 37° C. in rabbit) is then determined by the equation: x=λn

[4] = Systemic hemodynamics during infarct experiment; format: in vivo, rabbit
Experimental: as §1
A left thoracotomy was performed at the fourth intercostal space, and the heart was suspended in a pericardial cradle. A prominent branch of the left anterior descending coronary artery (LAD) was selected, and a silk ligature was placed around this artery approximately halfway between the base and apex for the production of coronary artery occlusion and reperfusion in myocardial infarct size experiments. Each rabbit was anticoagulated with 500 U of heparin immediately before LAD occlusion. Coronary artery occlusion was verified by the presence of epicardial cyanosis and regional dyskinesia in the ischemic zone, and reperfusion was confirmed by observing an epicardial hyperemic response. Hemodynamics were continuously recorded on a polygraph throughout experimentation. After the surgical preparation, 30 min of stabilization were allowed.
as §2, §3

End-tidal gas analysis = format: in vivo, rabbit; details: for EtHalogenated: end-tidal
Experimental: as §2, §3

With FCOC(C(F)(F)F)C(F)(F)F [SEVO, sevoflurane] as the molecule, how does the “Partition Coefficient ("λ")” value [1] read?
The value was 0.69.

And the PaCO2 ([2]; Baseline)?
The PaCO2 was 37 ± 1 mmHg.

What about the PaO2 ([2]; Baseline) of the same molecule?
The PaO2 was 125 ± 8^ mmHg.

And the PaCO2 ([2]; Infusion)?
The PaCO2 was 38 ± 1 mmHg.

What about the PaO2 ([2]; Infusion) of the same molecule?
The PaO2 was 118 ± 6 mmHg.

What about the PaCO2 ([2]; Ischemia 30 min) of the same molecule?
Its PaCO2 is 40 ± 1 mmHg.

And the PaO2 ([2]; Ischemia 30 min)?
The PaO2 was 106 ± 12 mmHg.

What about the PaCO2 ([2]; Memory) of the same molecule?
Its PaCO2 is 41 ± 1 mmHg.

And the PaO2 ([2]; Memory)?
Its PaO2 is 107 ± 11 mmHg.

What about the PaCO2 ([2]; Reperfusion 1 h) of the same molecule?
The PaCO2 was 38 ± 1 mmHg.

What about the PaO2 ([2]; Reperfusion 1 h) of the same molecule?
Its PaO2 is 120 ± 7 mmHg.

And the PaCO2 ([2]; Reperfusion 2 h)?
Its PaCO2 is 38 ± 1 mmHg.

And the PaO2 ([2]; Reperfusion 2 h)?
Its PaO2 is 127 ± 6^ mmHg.

What about the PaCO2 ([2]; Reperfusion 3 h) of the same molecule?
The PaCO2 was 39 ± 1 mmHg.

And the PaO2 ([2]; Reperfusion 3 h)?
The PaO2 was 121 ± 8 mmHg.

And the pH ([2]; Baseline)?
Its pH is 7.44 ± 0.01.

And the pH ([2]; Infusion)?
The pH was 7.42 ± 0.01.

What about the pH ([2]; Ischemia 30 min) of the same molecule?
The pH was 7.38 ± 0.01.

And the pH ([2]; Memory)?
The pH was 7.39 ± 0.01.

What about the pH ([2]; Reperfusion 1 h) of the same molecule?
Its pH is 7.39 ± 0.01.

What about the pH ([2]; Reperfusion 2 h) of the same molecule?
The pH was 7.40 ± 0.01.

What about the pH ([2]; Reperfusion 3 h) of the same molecule?
The pH was 7.39 ± 0.01.

And the “1 MAC-Equivalent Blood Concentration at 1 MAC ("x")” value [3]?
The value was 0.94 mM.

And the MAP ([4]; Baseline)?
The MAP was “increased”.

What about the RPP ([4]; Baseline) of the same molecule?
The RPP was 22.9 ± 1.3 bpm × mmHg × 10^3.

And the MAP ([4]; Baseline, listed as SEV)?
The MAP was 92 ± 4 mmHg.

And the HR ([4]; Infusion)?
Its HR is 235 ± 9 bpm.

What about the MAP ([4]; Infusion) of the same molecule?
Its MAP is “increased”.

What about the RPP ([4]; Infusion) of the same molecule?
Its RPP is 23.7 ± 1.7 bpm × mmHg × 10^3.

And the MAP ([4]; Infusion, listed as SEV)?
The MAP was 91 ± 4 mmHg.

And the HR ([4]; Ischemia 30 min)?
Its HR is 214 ± 8 bpm.

What about the MAP ([4]; Ischemia 30 min) of the same molecule?
The MAP was 64 ± 5 mmHg.

What about the RPP ([4]; Ischemia 30 min) of the same molecule?
The RPP was 15.7 ± 1.6 bpm × mmHg × 10^3.

What about the HR ([4]; Memory) of the same molecule?
The HR was 227 ± 11 bpm.

And the MAP ([4]; Memory)?
Its MAP is 87 ± 4 mmHg.

What about the RPP ([4]; Memory) of the same molecule?
The RPP was 22.1 ± 1.8 bpm × mmHg × 10^3.

And the HR ([4]; Reperfusion 1 h)?
Its HR is 206 ± 9 bpm.

And the MAP ([4]; Reperfusion 1 h)?
Its MAP is 65 ± 3 mmHg.

And the RPP ([4]; Reperfusion 1 h)?
Its RPP is 15.2 ± 1.3 bpm × mmHg × 10^3.

What about the HR ([4]; Reperfusion 2 h) of the same molecule?
Its HR is 193 ± 10 bpm.

What about the MAP ([4]; Reperfusion 2 h) of the same molecule?
Its MAP is 65 ± 3 mmHg.

What about the RPP ([4]; Reperfusion 2 h) of the same molecule?
The RPP was 14 ± 1.2 bpm × mmHg × 10^3.

What about the HR ([4]; Reperfusion 3 h) of the same molecule?
The HR was 188 ± 9 bpm.

What about the MAP ([4]; Reperfusion 3 h) of the same molecule?
Its MAP is 65 ± 2 mmHg.

And the RPP ([4]; Reperfusion 3 h)?
The RPP was 13.8 ± 0.8 bpm × mmHg × 10^3.

What about the HR ([4]; i.v. emulsion 10 ml/h for 30 min, Baseline) of the same molecule?
The HR was 227 ± 7 bpm.

What about the EtCO2 (End-tidal gas analysis; Baseline) of the same molecule?
The EtCO2 was 35 ± 1 mmHg.

What about the EtCO2 (End-tidal gas analysis; Infusion) of the same molecule?
The EtCO2 was 36 ± 1 mmHg.

What about the EtCO2 (End-tidal gas analysis; Ischemia 30 min) of the same molecule?
Its EtCO2 is 35 ± 1 mmHg.

What about the EtCO2 (End-tidal gas analysis; Memory) of the same molecule?
The EtCO2 was 36 ± 1 mmHg.

And the EtCO2 (End-tidal gas analysis; Reperfusion 1 h)?
The EtCO2 was 34 ± 1 mmHg.

What about the EtCO2 (End-tidal gas analysis; Reperfusion 2 h) of the same molecule?
Its EtCO2 is 33 ± 1 mmHg.

And the EtCO2 (End-tidal gas analysis; Reperfusion 3 h)?
The EtCO2 was 34 ± 1 mmHg.

What about the EtHalogenated (End-tidal gas analysis; Baseline) of the same molecule?
The EtHalogenated was 0%.

What about the EtHalogenated (End-tidal gas analysis; Infusion) of the same molecule?
The EtHalogenated was 0.34 ± 0.02%.

And the EtHalogenated (End-tidal gas analysis; Ischemia 30 min)?
Its EtHalogenated is 0.04 ± 0.01%.

And the EtHalogenated (End-tidal gas analysis; Memory)?
The EtHalogenated was 0.07 ± 0.01%.

And the EtHalogenated (End-tidal gas analysis; Reperfusion 1 h)?
Its EtHalogenated is 0.03 ± 0.01%.

What about the EtHalogenated (End-tidal gas analysis; Reperfusion 2 h) of the same molecule?
The EtHalogenated was 0.04 ± 0.01%.

And the EtHalogenated (End-tidal gas analysis; Reperfusion 3 h)?
The EtHalogenated was 0.05 ± 0.01%.
